# Results: ChEMBL document CHEMBL4673219, “Novel 5,6-disubstituted pyrrolo[2,3-d]pyrimidine derivatives as broad spectrum antiproliferative agents: Synthesis, cell based assays, kinase profile and molecular docking study” (Bioorg Med Chem, 2018)
# Legend:
# [1] = test system: MDA-MB-468; assay: Growth inhibition of human MDA-MB-468 cells assessed as growth percentage at 10 uM incubated for 48 hrs by sulforhodamine B assay relative to control; assay type: functional; conditions: read-out: Activity
# [2] = test system: OVCAR-3; assay: Growth inhibition of human OVCAR-3 cells assessed as growth percentage at 10 uM incubated for 48 hrs by sulforhodamine B assay relative to control; assay type: functional; conditions: read-out: Activity
# [3] = test system: SK-MEL-28; assay: Growth inhibition of human SK-MEL-28 cells assessed as growth percentage at 10 uM incubated for 48 hrs by sulforhodamine B assay relative to control; assay type: functional; conditions: read-out: Activity
# [4] = test system: SNB-19; assay: Growth inhibition of human SNB-19 cells assessed as growth percentage at 10 uM incubated for 48 hrs by sulforhodamine B assay relative to control; assay type: functional; conditions: read-out: Activity
# [5] = test system: HCT-15; assay: Growth inhibition of human HCT-15 cells assessed as growth percentage at 10 uM incubated for 48 hrs by sulforhodamine B assay relative to control; assay type: functional; conditions: read-out: Activity
# [6] = test system: NCI-H522; assay: Growth inhibition of human NCI-H522 cells assessed as growth percentage at 10 uM incubated for 48 hrs by sulforhodamine B assay relative to control; assay type: functional; conditions: read-out: Activity
# [7] = test system: NCI-H460; assay: Growth inhibition of human NCI-H460 cells assessed as growth percentage at 10 uM incubated for 48 hrs by sulforhodamine B assay relative to control; assay type: functional; conditions: read-out: Activity
# [8] = test system: MOLT-4; assay: Growth inhibition of human MOLT-4 cells assessed as growth percentage at 10 uM incubated for 48 hrs by sulforhodamine B assay relative to control; assay type: functional; conditions: read-out: Activity
# [9] = test system: SNB-75; assay: Growth inhibition of human SNB-75 cells incubated for 48 hrs by sulforhodamine B assay; assay type: functional
# [10] = test system: SNB-19; assay: Growth inhibition of human SNB-19 cells incubated for 48 hrs by sulforhodamine B assay; assay type: functional
# [11] = test system: SF-295; assay: Growth inhibition of human SF-295 cells incubated for 48 hrs by sulforhodamine B assay; assay type: functional
# [12] = test system: HT-29; assay: Growth inhibition of human HT-29 cells incubated for 48 hrs by sulforhodamine B assay; assay type: functional
# [13] = Cytotoxicity against human HFF-1 cells assessed as cell growth inhibition by MTT assay; assay type: cell-based
# [14] = test system: DU-145; assay: Growth inhibition of human DU-145 cells assessed as growth percentage at 100 uM incubated for 48 hrs by sulforhodamine B assay relative to control; assay type: functional; conditions: read-out: Activity
# [15] = test system: PC-3; assay: Growth inhibition of human PC-3 cells assessed as growth percentage at 100 uM incubated for 48 hrs by sulforhodamine B assay relative to control; assay type: functional; conditions: read-out: Activity
# [16] = test system: UACC-257; assay: Growth inhibition of human UACC-257 cells assessed as growth percentage at 100 uM incubated for 48 hrs by sulforhodamine B assay relative to control; assay type: functional; conditions: read-out: Activity
# [17] = test system: A549; assay: Growth inhibition of human A549/ATCC cells assessed as growth percentage at 100 uM incubated for 48 hrs by sulforhodamine B assay relative to control; assay type: functional; conditions: read-out: Activity
# [18] = test system: UO-31; assay: Growth inhibition of human UO-31 cells assessed as growth percentage at 1 uM incubated for 48 hrs by sulforhodamine B assay relative to control; assay type: functional; conditions: read-out: Activity
# [19] = test system: RXF 393; assay: Growth inhibition of human RXF 393 cells assessed as growth percentage at 1 uM incubated for 48 hrs by sulforhodamine B assay relative to control; assay type: functional; conditions: read-out: Activity
# [20] = test system: NCI/ADR-RES; assay: Growth inhibition of human NCI/ADR-RES cells assessed as growth percentage at 1 uM incubated for 48 hrs by sulforhodamine B assay relative to control; assay type: functional; conditions: read-out: Activity
# [21] = test system: SNB-19; assay: Growth inhibition of human SNB-19 cells assessed as growth percentage at 1 uM incubated for 48 hrs by sulforhodamine B assay relative to control; assay type: functional; conditions: read-out: Activity
# [22] = test system: SW-620; assay: Growth inhibition of human SW-620 cells assessed as growth percentage at 1 uM incubated for 48 hrs by sulforhodamine B assay relative to control; assay type: functional; conditions: read-out: Activity
# [23] = test system: HT-29; assay: Growth inhibition of human HT-29 cells assessed as growth percentage at 1 uM incubated for 48 hrs by sulforhodamine B assay relative to control; assay type: functional; conditions: read-out: Activity
# [24] = test system: MOLT-4; assay: Growth inhibition of human MOLT-4 cells assessed as growth percentage at 1 uM incubated for 48 hrs by sulforhodamine B assay relative to control; assay type: functional; conditions: read-out: Activity
# [25] = test system: BT-549; assay: Growth inhibition of human BT-549 cells assessed as growth percentage at 0.1 uM incubated for 48 hrs by sulforhodamine B assay relative to control; assay type: functional; conditions: read-out: Activity
# [26] = test system: CCRF-CEM; assay: Growth inhibition of human CCRF-CEM cells assessed as growth percentage at 1 uM incubated for 48 hrs by sulforhodamine B assay relative to control; assay type: functional; conditions: read-out: Activity
# [27] = test system: MDA-MB-231; assay: Growth inhibition of human MDA-MB-231/ATCC cells assessed as growth percentage at 0.1 uM incubated for 48 hrs by sulforhodamine B assay relative to control; assay type: functional; conditions: read-out: Activity
# [28] = test system: PC-3; assay: Growth inhibition of human PC-3 cells assessed as growth percentage at 0.1 uM incubated for 48 hrs by sulforhodamine B assay relative to control; assay type: functional; conditions: read-out: Activity
# [29] = test system: OVCAR-3; assay: Growth inhibition of human OVCAR-3 cells assessed as growth percentage at 0.1 uM incubated for 48 hrs by sulforhodamine B assay relative to control; assay type: functional; conditions: read-out: Activity
# [30] = test system: IGROV-1; assay: Growth inhibition of human IGROV-1 assessed as growth percent at 0.1 uM incubated for 48 hrs by sulforhodamine B assay relative to control; assay type: functional; conditions: read-out: Activity
# [31] = test system: NCI-H460; assay: Growth inhibition of human NCI-H460 cells assessed as growth percentage at 0.1 uM incubated for 48 hrs by sulforhodamine B assay relative to control; assay type: functional; conditions: read-out: Activity
# [32] = test system: MDA-MB-468; assay: Growth inhibition of human MDA-MB-468 cells assessed as growth percentage at 0.01 uM incubated for 48 hrs by sulforhodamine B assay relative to control; assay type: functional; conditions: read-out: Activity
# [33] = test system: RXF 393; assay: Growth inhibition of human RXF 393 cells assessed as growth percentage at 0.01 uM incubated for 48 hrs by sulforhodamine B assay relative to control; assay type: functional; conditions: read-out: Activity
# [34] = test system: A498; assay: Growth inhibition of human A498 cells assessed as growth percentage at 0.01 uM incubated for 48 hrs by sulforhodamine B assay relative to control; assay type: functional; conditions: read-out: Activity
# [35] = test system: M14; assay: Growth inhibition of human M14 cells assessed as growth percentage at 0.01 uM incubated for 48 hrs by sulforhodamine B assay relative to control; assay type: functional; conditions: read-out: Activity
# [36] = test system: LOX IMVI; assay: Growth inhibition of human LOX IMVI cells assessed as growth percentage at 0.01 uM incubated for 48 hrs by sulforhodamine B assay relative to control; assay type: functional; conditions: read-out: Activity
# [37] = test system: SF-295; assay: Growth inhibition of human SF-295 cells assessed as growth percentage at 0.01 uM incubated for 48 hrs by sulforhodamine B assay relative to control; assay type: functional; conditions: read-out: Activity
# [38] = test system: HT-29; assay: Growth inhibition of human HT-29 cells assessed as growth percentage at 0.01 uM incubated for 48 hrs by sulforhodamine B assay relative to control; assay type: functional; conditions: read-out: Activity
# [39] = test system: NCI-H460; assay: Growth inhibition of human NCI-H460 cells assessed as growth percentage at 0.01 uM incubated for 48 hrs by sulforhodamine B assay relative to control; assay type: functional; conditions: read-out: Activity
# [40] = test system: HOP-92; assay: Growth inhibition of human HOP-92 cells assessed as growth percentage at 0.01 uM incubated for 48 hrs by sulforhodamine B assay relative to control; assay type: functional; conditions: read-out: Activity
structure (smiles),measurement,setting,value
Nc1nc2[nH]c(CN3CCN(c4cc(Cl)cc(Cl)c4)CC3)c(CN3CCN(c4cc(Cl)cc(Cl)c4)CC3)c2c(=O)[nH]1,growth at 10 µM,[1],40.1%
same,growth at 10 µM,[2],89.7%
same,growth at 10 µM,[3],90.8%
same,growth at 10 µM,[4],79.8%
same,growth at 10 µM,[5],67.4%
same,growth at 10 µM,[6],83.3%
same,growth at 10 µM,[7],79.4%
same,growth at 10 µM,[8],23.6%
same,GI50,[9],1420 nM
same,TGI,[9],2740 nM
same,GI50,[10],1770 nM
same,TGI,[10],3670 nM
same,GI50,[11],1820 nM
same,TGI,[11],3900 nM
same,GI50,[12]; HT-29,1740 nM
same,TGI,"[12]; HT-29, 48 h",3410 nM
same,CC50,"[12]; HT-29, read-out: LC50 (the source's name)",6700 nM
same,GI50,[13],> 10000 nM
same,growth at 100 µM,[14],-92%
same,growth at 100 µM,[15],-81%
same,growth at 100 µM,[16],-57%
same,growth at 100 µM,[17],-45%
same,growth at 1 µM,[18],90%
same,growth at 1 µM,[19],85%
same,growth at 1 µM,[20],102%
same,growth at 1 µM,[21],89%
same,growth at 1 µM,[22],88%
same,growth at 1 µM,[23],91%
same,growth at 1 µM,[24],90%
same,growth at 0.1 µM,[25],92%
same,growth at 1 µM,[26],87%
same,growth at 0.1 µM,[27],98%
same,growth at 0.1 µM,[28],96%
same,growth at 0.1 µM,[29],106%
same,growth at 0.1 µM,[30],105%
same,growth at 0.1 µM,[31],104%
same,growth at 0.01 µM,[32],97%
same,growth at 0.01 µM,[33],95%
same,growth at 0.01 µM,[34],90%
same,growth at 0.01 µM,[35],93%
same,growth at 0.01 µM,[36],99%
same,growth at 0.01 µM,[37],87%
same,growth at 0.01 µM,[38],105%
same,growth at 0.01 µM,[39],105%
same,growth at 0.01 µM,[40],85%
